A short description of assay [1]: In vitro antimalarial activity against Plasmodium falciparum Csl-2 triple DHFR mutant (C59R/S108N/I164L)/.
A short description of assay [2]: In vitro antimalarial activity relative to trimethoprim against Plasmodium falciparum TM4/8.2 wtDHFR.
Assay [3] is described as follows: In vitro antimalarial activity against Plasmodium falciparum Vl/S with quadruple DHFR mutant (N51I/C59R/S108N/I164L).
The nature of assay [4]: In vitro antimalarial activity against Plasmodium falciparum Csl-2 triple DHFR mutant (C59R/S108N/I164L) relative to trimethoprim.
Assay [5] in a line: In vitro antimalarial activity against Plasmodium falciparum TM4/8.2 wtDHFR.
Assay [6] is described as follows: In vitro antimalarial activity against Plasmodium falciparum K1CB1 double DHFR mutation (C59R/S108N) relative to trimethoprim.
Assay [7] can be described thus: In vitro antimalarial activity relative to trimethoprim against Plasmodium falciparum Vl/S with quadruple DHFR mutant (N51I/C59R/S108N/I164L).
Assay [8] can be described thus: In vitro antimalarial activity against Plasmodium falciparum K1CB1 double DHFR mutant (C59R/S108N).

Structures are written as SMILES.

In the case of `COc1ccc(Cc2cnc(N)nc2N)cc1OCc1ccccc1` [5-(3-Benzyloxy-4-methoxy-benzyl)-pyrimidine-2,4-diamine], the IC50 was 5.73 µM in assay [1], over 50 µM in assay [3], 17.5 µM in assay [5] and 3.83 µM in assay [8]. The IC50 ratio turned out to be 2.62 in assay [2], 0.05 in assay [4], 0.03 in assay [6] and 0.25 in assay [7].
Regarding `COc1cc(Cc2c(C)nc(N)nc2N)ccc1OCc1ccccc1` [5-(4-(benzyloxy)-3-methoxybenzyl)-6-methylpyrimidine-2,4-diamine], the concentration for half-maximal inhibition (IC50) was found to be 2.85 µM in assay [1], 4.82 µM in assay [3], 6.84 µM in assay [5] and 25.2 µM in assay [8]. Besides, the figures for the IC50 ratio in assay [2], in assay [4] and in assay [6] were 1.03, 0.02 and 0.18, respectively.
In the case of `CCc1nc(N)nc(N)c1Cc1ccc(OCc2ccccc2)c(OC)c1` [5-(4-Benzyloxy-3-methoxy-benzyl)-6-ethyl-pyrimidine-2,4-diamine], the IC50 in assay [1] was 5.37 µM; in assay [3], 11.3 µM; in assay [5] it was 5.06 µM; in assay [8], 16.3 µM. In addition, the IC50 ratio in assay [2] was 0.76; in assay [4] it was 0.05; in assay [6], 0.12.
Take `COc1cc(Cc2cnc(N)nc2N)ccc1OCc1cc(OC)c(OC)c(OC)c1` [5-[3-Methoxy-4-(3,4,5-trimethoxy-benzyloxy)-benzyl]-pyrimidine-2,4-diamine]: the IC50 in assay [1] came out at 30.6 µM; in assay [3], 26.1 µM; in assay [5] it was 0.31 µM; in assay [8] it was 27.8 µM. The results for the IC50 ratio in assay [2], in assay [4] and in assay [6] were 0.05, 0.26 and 0.13, respectively.

Values taken from BindingDB's records for doi:10.1021/jm0303352 (National Center For Genetic Engineering and Biotechnology …, 2004).
